Measured values published in patent publication US20050003029A1, “UTILIZATION OF RUTINS AND AESCINS IN THE TREATMENT OF OCULAR CIRCULATORY DISTURBANCES” (priority 2001, published 2005).

Tested on: retinal hemorrhages and vascular leakages
Test: Efficacy case examples: oral therapy of patients with retinal hemorrhages and vascular leakages, detected by fluorescence angiography
Type: in vivo, human
Conditions: orally daily
Text: (§1) patient with severe visual impairment.
2 relatively small intraretinal hemorrhages on the retina existed, further 8 vascular leakages stainable with fluorescein sodium and detectable using fluorescence angiography. The finding existed for 4 months with the tendency to worsen. The basic disease present was a generalized sclerotic vascular complaint.
patient with suddenly commencing visual impairment, which had existed for 5 months.
A relatively large intraretinal strip hemorrhage existed as a result of a branch vein thrombosis, further 3 vascular leakages detectable by fluorescence angiography. The basic disease present was latent diabetes mellitus.
as §1
1 relatively large and 2 smaller retinal hemorrhages existed; further three vascular leakages which were detectable using fluorescence angiography. The basic disease was a generalized vascular complaint. The finding existed for 5 months with the tendency for increasing worsening.
as §1
A large subretinal hemorrhage existed, further 2 vascular leakages detectable by fluorescence angiography. A risk factor to be seen was the taking for years of a hormonal anticontraceptive.

CC1OC(OCC2OC(Oc3c(-c4ccc(OCCO)c(OCCO)c4)oc4cc(OCCO)cc(O)c4c3=O)C(O)C(O)C2O)C(O)C(O)C1O (stereo not drawn) [troxerutin, 3′,4′,7-tris-O-(β-hydroxyethyl)rutin]
leakages sealed (Case example 1, after 2 weeks): 1 leakages
leakages sealed (total) (Case example 1, after 4 weeks): 3 leakages
intraretinal hemorrhages (status) (Case example 1, four-week therapy, 2 relatively small hemorrhages): unchanged
vascular leakages (status) (Case example 2, three-week therapy, 3 leakages before): unchanged
resorption of intraretinal strip hemorrhage (Case example 2, three-week therapy, measured by the starting size): 10%
resorption of a small hemorrhage (Case example 3, patient, three-week therapy): low-grade beginning of resorption
leakages sealed (Case example 3, three-week therapy): 1 leakages
leakages sealed (Case example 4, 2 leakages before): 1 leakages
resorption of the large subretinal hemorrhage (Case example 4, combination three weeks, measured by the starting size): approximately 5%
